Results reported in patent US20220267271A1, “WNT ACTIVATORS AND METHODS OF USE” (MAYO FOUNDATION FOR MEDICAL EDUCATION AND RESEARCH, priority 2019, published 2022).

Assays:
hCMEC/D3 cells = assay: Cell viability assay (CellTiter-Glo) in hCMEC/D3 cells; assay type: cell-based, human; conditions: hCMEC/D3 cells, 0.3, 1, 3, 10 and 30 μM, 24 h
Procedure: The human brain endothelial capillary hCMEC/D3 cells were cultured with compounds at the indicated concentrations for 24 h. Cell viability was assessed by the Cell TitreGlo Assay system from Promega. Data represent mean±SD from three independent experiments. *P<0.05.
Cell viability assay: Human blood-brain barrier hCMEC/D3 cells were seeded into 96-well tissue culture treated microtiter plates at a density of 20,000 cells/well. After 24 h incubation, the cells were treated with the test compounds at the indicated concentrations for 24 h. Cell viability was measured by the CellTiter-Glo Assay (Promega), which is a luminescent assay that is an indicator of live cells as a function of metabolic activity and ATP content.

[1] = system: E. coli: wp2[pKM101]+wp2 uvrA; assay: Ames test, bacterial reverse mutation assay, E. coli; design: species or system Escherichia coli; conditions: 1011 and 1015 at 400 μM, mean ± SD, n = 3
Procedure: (§1) Ames test: According to the OECD Guidelines For Testing Of Chemicals, experiments with the tested agents, positive and negative controls, were conducted in triplicates on 6 tester strains, S. typhimurium: TA98, TA100, TA1535, TA1537 and E. coli: wp2[pKM101]+wp2 uvrA mixed 1:2. Dimethyl sulfoxide (DMSO) was used as the vehicle control for all tester strains in mutagenicity assay with and without metabolic activation. Compounds with known mutagenic activity were used as the positive controls in mutagenicity assay without metabolic activation: 2-nitrofluorene (0.1 μg/plate) for TA98, 4-nitroquinoline N-oxide (0.1 μg/plate) for TA100, sodium azide (0.2 μg/plate) for TA1535, 9-aminoacridine (7.5 μg/plate) for TA1537, and 4-nitroquinoline N-oxide (0.1 μg/plate) for E. coli. 2-Aminoantracene in final concentration 0.4 μg/ml was used as the positive control (the solution of 2-aminoantracene in DMSO was prepared immediately before experiment) in test with metabolic activation. For each experiment tester strain cultures were grown overnight in Oxoid nutrient broth #2 at 37° C. with shaking at 235 rpm to a density of 1-2×10^9 colony forming units/ml (OD600˜1.5). The S9 mix, which is consist of 9000 g supernatant fraction of rat liver homogenate (S9 fraction), was prepared immediately prior to its use in experimental procedure.
(§2) The tester strain (10 μl of overnight culture) was mixed with the test agent (10 μl of the DMSO stock) and GM liquid medium (30 μl) or S9 mix (30 μl). Then, 200 μl of molten top agar supplemented with histidine/biotin (final concentration 0.05 mM) for S. typhimurium and tryptophan (final concentration 0.025 mM) for E. coli were added to the tube (top agar was kept at 44° C. to prevent hardening). The mixed suspension was poured onto the surface of a GM agar plate (2.0 ml of GM agar per plate). After the top agar solidified, the plates were inverted and incubated at 37° C. for 48 hours. The results were expressed as number of revertant colonies per plate. The final concentrations of the test compounds in the mutagenicity assay with all tester strains in both the presence and absence of S9 mix were 400 μM. All concentrations were tested in triplicates.

[2] = system: E. coli strain TOP10-pTac-lux-CDABE; assay: Bacterial cytotoxicity evaluation (luminescence); conditions: 6.25-400 μM, 4 h
Procedure: In addition, bacterial cytotoxicity evaluation was performed using E. coli strain TOP10-pTac-lux-CDABE, expressing both luciferase (a heterodimer of LuxA and LuxB subunits) and the enzymes required for the production of luciferase substrate (LuxC, LuxD and LuxE). For the experiment, bacterial culture was grown overnight in LB medium at 37° C. with shaking at 250 rpm. The overnight culture was diluted 1:666 into fresh LB medium supplemented with 50 μg/ml kanamycin and incubated at 37° C. and 250 rpm to OD600 0.4-0.5. Serial dilutions of the test compounds in DMSO were prepared (40 mM, 20 mM, 10 mM, 5 mM, 2.5 mM, 1.25 mM, 0.625 mM) and 4 μl aliquots of each solution were transferred into 96-well plate and mixed with 96 μl of 0.9% NaCl. Then, 10 μl of the dilutions were dispensed into the appropriate wells of 384-well white screening microplate. 30 μl aliquots of freshly grown bacterial culture at OD600 of 0.4-0.5 were added to each well with compounds' dilutions (Final concentration of the test compounds were 400 μM, 200 μM, 100 μM, 50 μM, 25 μM, 12.5 μM, 6.25 μM). The plate was incubated for 4 h at 37° C. and the luminescence.

[3] = system: S. typhimuium and E. coli; assay: Bacterial reverse mutation test, all tested strains (summary); design: species or system Salmonella typhimuium and Escherichia coli; conditions: 400 μM
Procedure: The bacterial reverse mutation test uses amino acid requiring strains of Salmonella typhimuium and Escherichia coli (E. coli) to detect chemical substances that can produce genetic damage and lead to gene mutations. The mutagenic potential of 1011 and 1015 and their metabolites was assessed by exposing bacterial strains to the compounds and evaluating at 400 μM, and evaluating the numbers of revertant colonies grown in the absence (trace quantities) of the amino acid.
Ames test: According to the OECD Guidelines For Testing Of Chemicals, experiments with the tested agents, positive and negative controls, were conducted in triplicates on 6 tester strains, S. typhimurium: TA98, TA100, TA1535, TA1537 and E. coli: wp2[pKM101]+wp2 uvrA mixed 1:2. Dimethyl sulfoxide (DMSO) was used as the vehicle control for all tester strains in mutagenicity assay with and without metabolic activation. […]
The tester strain (10 μl of overnight culture) was mixed with the test agent (10 μl of the DMSO stock) and GM liquid medium (30 μl) or S9 mix (30 μl). […] The results were expressed as number of revertant colonies per plate. […]

S. typhimurium TA1537 = assay: Ames test, bacterial reverse mutation assay, TA1537; design: species or system Salmonella typhimuium; conditions: 1011 and 1015 at 400 μM, mean ± SD, n = 3
Procedure: as §1, §2

S. typhimurium TA98 = assay: Ames test, bacterial reverse mutation assay, TA98; design: species or system Salmonella typhimuium; conditions: 1011 and 1015 at 400 μM, mean ± SD, n = 3
Procedure: as §1, §2

S. typhimurium TA1535 = assay: Ames test, bacterial reverse mutation assay, TA1535; design: species or system Salmonella typhimuium; conditions: 1011 and 1015 at 400 μM, mean ± SD, n = 3
Procedure: as §1, §2

[4] = with metabolic activation (S9 mix)

| Structure (SMILES) | cytotoxicity (cell viability) (hCMEC/D3 cells) | Number of revertant colonies per plate, E. coli [1, 4] | Number of revertant colonies per plate, E. coli ([1]; without metabolic activation) | cytotoxicity for bacterial cells [2] | mutagenic effects of test compounds and their metabolites [3] | Number of revertant colonies per plate, TA1537 (S. typhimurium TA1537; [4]) | Number of revertant colonies per plate, TA1537 (S. typhimurium TA1537; without metabolic activation) | Number of revertant colonies per plate, TA 98 (S. typhimurium TA98; [4]) | Number of revertant colonies per plate, TA 98 (S. typhimurium TA98; without metabolic activation) | Number of revertant colonies per plate, TA1535 (S. typhimurium TA1535; [4]) | Number of revertant colonies per plate, TA1535 (S. typhimurium TA1535; without metabolic activation) |
| --- | --- | --- | --- | --- | --- | --- | --- | --- | --- | --- | --- |
| CC1CCCC(C)N1CCNC(=O)c1ccc(C(=O)Nc2ccccc2N)nc1 (stereo not shown) [Compound 1011] | not toxic at all the tested concentrations | 9.7 ± 3.2 revertant colonies per plate | 8.7 ± 2.1 revertant colonies per plate | no cytotoxicity | no mutagenic effects | 0.0 ± 0.0 revertant colonies per plate | 0.7 ± 0.6 revertant colonies per plate | 1.7 ± 2.1 revertant colonies per plate | 1.7 ± 1.5 revertant colonies per plate | 0.7 ± 0.6 revertant colonies per plate | 1.7 ± 2.1 revertant colonies per plate |
| Nc1ccccc1NC(=O)c1ccc(C(=O)NCC2CCN2C2CCCC2)cn1 (stereo not shown) [Compound 1015] | not toxic at or below the 10 μM concentration | 9.0 ± 2.7 revertant colonies per plate | 5.3 ± 4.7 revertant colonies per plate | no cytotoxicity | no mutagenic effects | 0.0 ± 0.0 revertant colonies per plate | 0.0 ± 0.0 revertant colonies per plate | 0.7 ± 1.2 revertant colonies per plate | 1.3 ± 1.5 revertant colonies per plate | 0.7 ± 1.2 revertant colonies per plate | 0.3 ± 0.6 revertant colonies per plate |
